What was measured:
Test in all cases: relative viability (nuclei count vs DMSO), 5 days (fraction); higher = more cells survive
[1] = compound: COC1=C(C=C(C=C1)C2=CC3=NC=CN3C(=N2)NC4=C(C=CC=N4)C(=O)N)OC [BAY61-3606] + CC(C)C[C@H](NC(=O)[C@H](Cc1ccccc1)NC(=O)c1cnccn1)B(O)O [Bortezomib] (partner 0.002 µM)
Summary of the method: (§1)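 Values are medians from duplicate plates. Each reflects relative viability, defined as the nuclei count of treated wells over that of vehicle wells. Lung cancer cell lines in 1536-well plates were pin-tool dosed one day after seeding with one drug alone or with a fixed anchor-drug dose plus five library-drug doses (not always all listed) in √10 steps, then fixed, stained and imaged at 4× after 5 days.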

[2] = compound: COC1=C(C=C(C=C1)C2=CC3=NC=CN3C(=N2)NC4=C(C=CC=N4)C(=O)N)OC [BAY61-3606] + CS(=O)(=O)N1CCN(Cc2cc3nc(-c4cccc5[nH]ncc45)nc(N4CCOCC4)c3s2)CC1 [Pictilisib] (partner 1 µM)
Summary of the method: as §1

[3] = compound: COC1=C(C=C(C=C1)C2=CC3=NC=CN3C(=N2)NC4=C(C=CC=N4)C(=O)N)OC [BAY61-3606] + O=C(c1cc(Cc2n[nH]c(=O)c3ccccc23)ccc1F)N1CCN(C(=O)C2CC2)CC1 [Olaparib] (partner 8 µM)
Summary of the method: as §1

[4] = compound: COc1cccc2c1C(=O)c1c(O)c3c(c(O)c1C2=O)C[C@@](O)(C(=O)CO)C[C@@H]3O[C@H]1C[C@H](N)[C@H](O)[C@H](C)O1 [Doxorubicin] + Cc1nc(Nc2ncc(C(=O)Nc3c(C)cccc3Cl)s2)cc(N2CCN(CCO)CC2)n1 [Dasatinib] (partner 0.075 µM)
Summary of the method: as §1

Cell Line	relative viability ([1]; first compound 0.02 µM)	relative viability ([1]; first compound 0.06325 µM)	relative viability ([1]; first compound 0.2 µM)	relative viability ([1]; first compound 0.6325 µM)	relative viability ([1]; first compound 2 µM)	relative viability ([2]; first compound 0.02 µM)	relative viability ([2]; first compound 0.06325 µM)	relative viability ([2]; first compound 0.2 µM)	relative viability ([2]; first compound 0.6325 µM)	relative viability ([2]; first compound 2 µM)	relative viability ([3]; first compound 0.02 µM)	relative viability ([3]; first compound 0.06325 µM)	relative viability ([3]; first compound 0.2 µM)	relative viability ([3]; first compound 0.6325 µM)	relative viability ([3]; first compound 2 µM)	relative viability ([4]; first compound 0.001 µM)	relative viability ([4]; first compound 0.003162 µM)	relative viability ([4]; first compound 0.01 µM)	relative viability ([4]; first compound 0.03162 µM)	relative viability ([4]; first compound 0.1 µM)
NCI-H1734	0.878	0.894	0.836	0.883	0.518	0.46	0.459	0.485	0.406	0.324	0.604	0.555	0.561	0.541	0.378	0.517	0.572	0.385	0.317	0.255
NCI-H1563	0.84	0.803	0.948	0.988	0.631	0.621	0.579	0.731	0.654	0.653						0.481	0.505	0.45	0.462	0.483
NCI-H441	0.729	0.51	0.479	0.607	0.434	0.561	0.529	0.493	0.475	0.282	0.561	0.629	0.511	0.473	0.32		0.585	0.332	0.166	0.213
H3255	0.932	0.611	0.724	0.822	0.725	0.516	0.432	0.463	0.467	0.447	0.545	0.486	0.511	0.582	0.516	0.359	0.388	0.436	0.333	0.33
Calu-6	1.12	1.15	1.06	1.01	0.831	0.963	1.01	0.957	0.932	0.659	0.659	0.562	0.543	0.551	0.466					
NCI-H1915	0.929	1	0.9	0.925	0.913	0.999	0.99	0.739	0.884	0.685	0.253	0.236	0.254	0.247	0.181	0.281	0.355	0.308	0.302	0.324
NCI-H1793						0.434	0.381	0.303	0.352	0.434	0.988	0.814	1	1.03	0.718		0.511	0.374	0.33	0.413
HCC-44	0.889	0.847	0.845	0.878	0.947	0.581	0.651	0.634	0.684	0.561	0.955	0.974	0.979	0.901	0.958					
EBC-1	0.571	0.632	0.616	0.569	0.459	0.463	0.359	0.404	0.547	0.411	0.712	0.769	0.701	0.748	0.614					
NCI-H1623																0.502	0.564	0.55	0.548	0.491
NCI-H1648											0.766	0.982	0.736		0.765					
NCI-H522											0.768	0.618	0.644	0.654	0.53	0.724	1.04	0.873	0.776	1
NCI-H1944						0.384	0.346	0.337	0.326	0.281	0.439	0.38	0.397	0.434	0.258	0.18	0.206	0.216	0.165	0.174
IA-LM	0.912		0.917	0.797	0.68	0.351	0.393	0.442	0.54	0.496	1.02	0.864	0.816	0.85	0.68					
SK-MES-1						0.393	0.337	0.333	0.354	0.315	0.679	0.786	0.606	0.688	0.31	0.458	0.396	0.325	0.141	0.128
NCI-H1395						0.777	0.524	0.584	0.641	0.559	0.485	0.426	0.467	0.492	0.438	0.415	0.422	0.389	0.398	0.376
NCI-H2342											0.352	0.406	0.399	0.495	0.432	0.308	0.317	0.323	0.298	0.326
NCI-H1299	1.08	1.03	1.02	1.04	0.991	0.822	0.854	0.844	0.918	0.503	1	0.987	0.983	0.967	0.936					
A549						0.585	0.566	0.532	0.572	0.436	0.332	0.377	0.217	0.312	0.336					
NCI-H2170						0.368	0.28	0.308	0.389	0.265	0.59	0.62	0.571	0.626	0.435	0.625	0.687	0.455	0.436	0.553
SW 900											0.881			0.856	0.573	0.544	0.66	0.461	0.36	0.406
LK-2						0.594	0.423	0.614	0.758	0.532	0.694	0.598	0.731	0.846	0.736	0.326	0.284	0.221	0.286	0.265
NCI-H1703	0.486	0.321	0.291	0.368	0.234	0.27	0.233	0.241	0.256	0.214	0.626	0.383	0.448	0.541	0.276					

From the supplement of paper PMC10307832
